Measured values reported in patent publication US20060046972A1, “Cytotoxic nucleoside analog compound 003 for treating cancer” (Parker Hughes Institute, priority 2004, published 2006).
“Also recorded” adds a separate entry of the source. Like-named read-outs stand apart in the source and are kept apart here.

Key:
BT20 breast cancer cells = assay: Confocal laser scanning microscopy of microtubules / mitotic spindle, BT20; format: cell-based, human; conditions: 185 μM for 24 hours (AZT: similar concentrations)
Procedure: Immunofluorenscence was used to examine the spindle features of human cancer cell lines treated with Compound 003 or 0.5% DMSO. […] The coverslips were incubated with antibodies raised against α-tubulin, γ-tubulin (Sigma Chemical Co., St Louis, Mo.) (40 min 37° C.), washed in PBS-Tx-100, and incubated with an appropriate secondary antibody conjugated to FITC (Jackson ImmunoResearch, Westgrove, Pa.). Cellular DNA was labeled with 5 μM TOTO3 (Molecular Probes, Eugene, Oreg.) for 20 minutes. Coverslips were immediately inverted onto slides in Vectashield (Vector Labs, Burlingame, Calif.) to prevent photobleaching, sealed with nail varnish and stored at −20° C. The slides were examined using a Bio-Rad MRC-1024 Laser Scanning Confocal Microscope equipped with a Kr/Ar laser (BioRad, Hercules, Calif.) mounted on a Nikon Eclipse E800 upright microscope with high numerical aperture objectives (Nikon, Melville, N.Y.). Digital data were processed using Lasersharp (BioRad) and Adobe Photoshop software (Adobe Systems, Mountain View, Calif.). ( See, for example, Navara, et al., 2001, Anticancer Drugs. 12:369; Malaviya, et al., 2002, Leuk Lymphoma. 43, 1329; and Ghosh, 1998, Clin Cancer Res. 4, 2657).

[1] = Pharmacokinetics in CD-1 mice after intravenous or oral Compound 003; format: in vivo; conditions: female, CD-1, mouse
Procedure: Each plasma sample (200 μL) was mixed 1:4 with acetone (800 μL) and vortexed for at least 30 seconds. Following centrifugation, the supernatant was transferred into a clean tube and dried under nitrogen. A 50 μL solution of 50% methanol in 200 mM HCl was used to reconstitute the extraction residue, and 35 μL was subjected to analytical HPLC. The analytical column used was a 250×4 mm Lichrospher 100, RP-18 (5 μm) and the guard column was a 4×4 mm Lichrospher 100, RP-18 (5 μm). The mobile phase was degassed automatically by the electronic degasser system. The column was equilibrated and eluted under gradient conditions utilizing a flow rate of 1.0 ml/min at ambient temperature. The linear gradient mobile phase was: 0 minute, 100% 10 mM ammonium phosphate buffer (pH 3.7); 20 minutes, 20% acetonitrile, 80% ammonium phosphate buffer (pH 3.7); 20.1-50 minutes, 28% acetonitrile, 72% water (0.1% HAC). The wavelength of detection was set at 270 nm. Peak width, response time and slit werep, set at >0.03 minutes, 0.5 s and 8 nm, respectively.
Female CD-1 mice (6-8 weeks old) (Charles River, Wilmington, Mass.) were housed in a USDA-accredited animal care facility under standard environmental conditions (12-h light/12-h dark photoperiod, 22±1° C., 60±10% relative humidity). All rodents were housed in microisolator cages (Lab Products, Inc., N.J.) containing autoclaved bedding. Mice were allowed free access to autoclaved pellet food and tap water throughout the study. All animal studies are approved by the Parker Hughes Institute Animal Care and Use Committee, and all animal care procedures conformed to the principles outlined in the Guide for the Care and Use of Laboratory Animals (National Research Council;. National Academy Press, Washington D.C. 1996).
Compound 003 (200 mg/kg) dissolved in DMSO was administered intravenously via tail vein to non-fasted mice or orally via gavage to 12-h fasted mice. Four to six mice per time-point were used for pharmacokinetic studies. Blood samples (˜500 μL) were obtained from the ocular venous plexus by retro-orbital venipuncture at 0, 5, 10, 15, 30, 45 minutes, and 1 h, 1.5 h, 2 h, 4 h, 6 h and 8 h after oral administration. All collected blood-samples were heparinized and centrifuged at 7000×g for 5 minutes to separate the plasma fraction from the whole blood. The plasma samples were then processed immediately using the extraction procedure described above.
Pharmacokinetic modeling and parameter calculations were carried out using the WinNonlin Professional Version 3.0 (Pharsight, Inc., Mountain, Calif.) pharmacokinetics software (Chen, C. L., et al., (1999) Pharm Res. 16:117; Chen, C. L., et al., (1999) Pharm Res. 16:1003; Uckun, F. M., et al., (1999) Clin Cancer Res. 5:2954). An appropriate model was chosen on the basis of the lowest sum of weighted squared residuals, the lowest Schwartz Criterion (SC), the lowest Akaike's Information Criterion (AIC) value, the lowest standard errors of the fitted parameters, and the dispersion of the residuals. The elimination half-life was estimated by linear regression analysis of the terminal phase of the plasma concentration-time profile. The systemic clearance (CL) was determined by dividing the dose by the AUC.

[2] = Wang et al. (1996); cited from earlier work
[3] = test system: esterase-mediated metabolism of Compound 003 in BT20 cells; assay: Inhibition of ala-AZT-MP formation by esterase inhibitors, BT20; format: cell-based, human
Procedure: (§1) BT20 breast cancer cells were cultured in a medium composed of MEM, 10% FBS, 0:1 mM of nonessential amino acids and Earles salts, and 1% penicillin/streptornyclin Nalm6 cells were maintained in a medium composed of RPMI, 10% fetal bovine serum (FBS) and 1% penicillin/streptomycin. BT20 cells were seeded in 6-cm petri-dishes at 4 million cells per plate. Nalm6 cells at a density of 10^6 cells per ml were also utilized in drug metabolism study. Either one plate of adherent cells or 10 million nonadherent cells were utilized at each experiment. Cells were incubated with DMSO or 100 μM of esterase inhibitor, paraoxon, bis(p-nitrophenyl)phosphate (BNPP), physostigmine, or phenylmethylsulfonyl fluoride (PMSF) (Sigma) for 3.0 minutes, followed by 1 hour incubation of 100 μM Compound 003. After incubation, cells were washed two times with ice-cold PBS, and extracted by addition of 60% methanol. Cell lysates were kept at −20° C. overnight, after which lysates were centrifuged at 15,000×g for 10 minutes to remove the cell debris. One hundred microliters of these lysates were injected directly to HPLC. The amount of metabolite product of the esterase reaction, ala-AZT-MP, was measured to examine the effect of inhibitors on esterase-mediated metabolism of Compound 003.

[4] = test system: BT20 breast cancer cell line; assay: Intracellular metabolism of Compound 003 to ala-AZT-MP, BT20; format: in vitro ADME, human
Text: (§2) Intracellular metabolism of Compound 003 was studied in CEM T-lineage lymphoma cell line, BT20 breast cancer cell line, T98 glioblastoma cell line, and Nalm-6 B-lineage leukemia cell line. CEM and Nalm6 cells were maintained in RPMI supplemented with 10% fetal bovine serum, and 1% penicillin/streptomycin. BT20 and T98 cells w.ere cultured in a medium composed of MEM, 10% fetal bovine serum, 0.1-mM of nonessential amino acids and Earles salts, and 1% penicillin/streptomycin. CEM and Nalm6 cells at a density of 10^6 cells per ml were utilized in the drug metabolism study. BT20 and T98 cells were seeded in 6-cm petri-dishes at 4 million cells and 2 million cells per plate, respectively, the day before the experiment. Either one plate of adherent cells or 10 million non-adherent cells was utilized at each time point. Cells were incubated with various concentrations of the compounds up to 24 hrs at 37° C. After incubation, cells were washed 2 times with ice-cold PBS, and extracted by addition of 0.5-1 ml of 60% methanol. Cell lysates were kept at −20° C. overnight, after which lysates were centrifuged at 15000×g for 10 minutes to remove the cell debris. One hundred microliters of these lysates were injected directly to HPLC. For half-life study, cells at the same density as in drug metabolism study were treated with 100 μM Compound 003 for 2 hrs, after which cells were washed 2 times with ice-cold PBS, and resuspended in warm media until the time they were harvested. For uptake and efflux study, cells were seeded at 2 million cells in 2 ml of media. […] With efflux experiments, cells 1×10^6/mL (the same density as in the uptake study) were incubated with 100 μM Compound 003 for 1 hr, washed 2 times with ice-cold PBS, and resuspended with culture medium without drug, and the metabolite efflux from cells to the medium was measured after 6 hr of incubation. […]

[5] = test system: CEM T-lineage lymphoma cell line; assay: Intracellular metabolism of Compound 003 to ala-AZT-MP, CEM; format: in vitro ADME, human
Text: as §2, with “methanol.” for “methanol. Cell lysates were kept at −20° C. overnight, after which lysates were centrifuged at 15000×g for 10 minutes to remove the cell debris. One hundred microliters of these lysates were injected directly to HPLC. For half-life study, cells at the same density as in drug metabolism study were treated with 100 μM Compound 003 for 2 hrs, after which cells were washed 2 times with ice-cold PBS, and resuspended in warm media until the time they were harvested. For uptake and efflux study, cells were seeded at 2 million cells in 2 ml of media.”

[6] = test system: Nalm-6 B-lineage leukemia cell line; assay: Intracellular metabolism of Compound 003 to ala-AZT-MP, Nalm6; format: in vitro ADME, human
Text: as §2, with “methanol.” for “methanol. Cell lysates were kept at −20° C. overnight, after which lysates were centrifuged at 15000×g for 10 minutes to remove the cell debris. One hundred microliters of these lysates were injected directly to HPLC. For half-life study, cells at the same density as in drug metabolism study were treated with 100 μM Compound 003 for 2 hrs, after which cells were washed 2 times with ice-cold PBS, and resuspended in warm media until the time they were harvested. For uptake and efflux study, cells were seeded at 2 million cells in 2 ml of media.”

BT20 cells = assay: Metabolite efflux from cells to the medium; format: in vitro ADME, human; conditions: 100 μM Compound 003 1 hr, efflux after 6 hr
Text: Intracellular metabolism of Compound 003 was studied in CEM T-lineage lymphoma cell line, BT20 breast cancer cell line, T98 glioblastoma cell line, and Nalm-6 B-lineage leukemia cell line. CEM and Nalm6 cells were maintained in RPMI supplemented with 10% fetal bovine serum, and 1% penicillin/streptomycin. BT20 and T98 cells w.ere cultured in a medium composed of MEM, 10% fetal bovine serum, 0.1-mM of nonessential amino acids and Earles salts, and 1% penicillin/streptomycin. CEM and Nalm6 cells at a density of 10^6 cells per ml were utilized in the drug metabolism study. BT20 and T98 cells were seeded in 6-cm petri-dishes at 4 million cells and 2 million cells per plate, respectively, the day before the experiment. Either one plate of adherent cells or 10 million non-adherent cells was utilized at each time point. Cells were incubated with various concentrations of the compounds up to 24 hrs at 37° C. After incubation, cells were washed 2 times with ice-cold PBS, and extracted by addition of 0.5-1 ml of 60% methanol. […] With efflux experiments, cells 1×10^6/mL (the same density as in the uptake study) were incubated with 100 μM Compound 003 for 1 hr, washed 2 times with ice-cold PBS, and resuspended with culture medium without drug, and the metabolite efflux from cells to the medium was measured after 6 hr of incubation.

[7] = test system: esterase-mediated metabolism of Compound 003 in Nalm6 cells; assay: Inhibition of ala-AZT-MP formation by esterase inhibitors, Nalm6; format: cell-based, human; conditions: 100 μM inhibitor, then 100 μM Compound 003 1 hour
Procedure: as §1

[8] = iv, plasma metabolite following i.v. 200 mg/kg Compound 003
[9] = iv, plasma metabolite following i.v. 200 mg/kg Compound 003, read-out: elimination half-life (t1/2)
[10] = po, plasma metabolite following p.o. 200 mg/kg Compound 003
[11] = plasma metabolite following oral 200 mg/kg Compound 003, read-out: elimination half-life

Row | SMILES | AUC [1, 8] [µM·h] | Cmax [1, 8] [µM] | Tmax [1, 8] [min] | half-life [1, 9] [min] | AUC [1, 10] [µM·h] | Cmax [1, 10] [µM] | Tmax [1, 10] [min] | half-life [1, 11] [min] | potency order of esterase inhibitors [3] | further results
1 | Cc1cn([C@H]2C[C@H](N=[N+]=[N-])[C@@H](CO)O2)c(=O)[nH]c1=O [AZT, 3′-azido-3′-deoxythymidine, reference compound] | 152 | 64.3 | 50.4 | 35 | 386 ± 124 | 46.9 | 144 | 149 |  | effect on microtubules (BT20 breast cancer cells): no effect on microtubules; elimination t1/2 of AZT given as such [2]: ~21.2 min
2 | O=[N+]([O-])c1ccc(OP(=O)(O)Oc2ccc([N+](=O)[O-])cc2)cc1 [BNPP, Bis(p-nitrophenyl)phosphate] |  |  |  |  |  |  |  |  | paraoxon>BNPP>PMSF>physostigmine | 
3 | O=S(=O)(F)Cc1ccccc1 [PMSF, phenylmethyl sulfonyl fluoride] |  |  |  |  |  |  |  |  | paraoxon>BNPP>PMSF>physostigmine | 
4 | Cc1cn(C2CC(N=[N+]=[N-])C(COP(=O)(O)NC(C)C(=O)O)O2)c(=O)[nH]c1=O (centres unmarked) [ala-AZT-MP, 3′-azido-3′-deoxythymidine-5′-alaninyl phosphate] | 191 | 1880 | 1.2 | 33.2 | 20.7 ± 8.5 | 9.8 | 4.5 | 94.5 |  | further intracellular conversion of ala-AZT-MP [4]: preferentially converted to AZT-MP; intracellular accumulation of ala-AZT-MP, BT20 relative to the other three cell lines ([4]; 25-100 μM Compound 003, 3 hr): 6-12 fold; further intracellular conversion of ala-AZT-MP [5]: only AZT was detectable; level of ala-AZT-MP formation, CEM relative to Nalm6 ([5]; intact cells): 2 fold; further intracellular conversion of ala-AZT-MP [6]: converted to AZT first then to AZTmp; efflux of ala-AZT-MP (BT20 cells): only detectable from BT20 cells; Tmax ([1]; plasma, 200 mg/kg, mice, after Compound 003, route not distinguished): < 5 min
5 | CCOP(=O)(OCC)Oc1ccc([N+](=O)[O-])cc1 [paraoxon] |  |  |  |  |  |  |  |  | paraoxon>BNPP>PMSF>physostigmine | inhibition of metabolism of Compound 003 to ala-AZT-MP [7]: most potent inhibitor; also recorded: only paraoxon was effective in inhibiting the metabolism
